Test results from PMC10239758 (European journal of medicinal chemistry, 2023).
≈ marks a conversion by molar mass, not a printed value. Like-named read-outs stand apart in the source and are kept apart here.

Assays:
Mtb strain H37Rv = experiment: Microplate Alamar Blue assay; format: cell-based, Mycobacterium tuberculosis; settings: MABA, average of three measurements
[1] = Human liver microsomal stability; settings: human liver microsomes; for Remaining (NCF = 60 min): without the NADPH cofactor
Vero cells = experiment: Cytotoxicity against Vero cells; format: cell-based, African green monkey; settings: Chlorocebus sabaeus, read-out: Vero cells IC50, Vero cells
Mtb V4207 = experiment: microbe, parasite or virus in culture; format: cell-based; settings: Mycobacterium tuberculosis, V4207, read-out: Mtb MIC V4207/ DS
[2] = test system: clinically isolated strains of MDR/XDR-TB; experiment: microbe, parasite or virus in culture; format: cell-based, Mycobacterium tuberculosis

| Compound | MIC (Mtb strain H37Rv) [µg/mL] | Remaining (NCF = 60 min) [1] | other results |
| --- | --- | --- | --- |
| CC(C)c1ccc(-c2cccc(CN3CC[Si](C)(C)CC3)n2)cc1 [Compound 13, 1-((6-(4-Isopropylphenyl)pyridin-2-yl)methyl)-4,4-dimethyl-1,4-azasilinane] | 4 to 8 | – | – |
| CC(C)c1ccc(-c2cc(CN3CC[Si](C)(C)CC3)ccn2)cc1 [Compound 17, 1-((2-(4-Isopropylphenyl)pyridin-4-yl)methyl)-4,4-dimethyl-1,4-azasilinane] | 4 to 8 | – | – |
| CC(C)c1ccc(-c2cc(CN3CC[Si](C)(C)CC3)ncn2)cc1 [Compound 27, 4-((4,4-Dimethyl-1,4-azasilinan-1-yl)methyl)-6-(4-isopropylphenyl)pyrimidine] | 4 to 8 | – | – |
| CC(C)c1ccc(-c2ccnc(CN3CCC4(CCCC4)CC3)c2)cc1 [Compound 37, 8-((4-(4-Isopropylphenyl)pyridin-2-yl)methyl)-8-azaspiro[4.5]decane] | – | stable | – |
| c1ccc(-c2ccc(-c3ccnc(CN4CCC5(CCCC5)CC4)c3)cc2)cc1 [Compound 62, 8-((4-([1,1'-Biphenyl]-4-yl)pyridin-2-yl)methyl)-8-azaspiro[4.5]decane] | – | stable | IC50 (Vero cells): ≥ 16 µg/mL; MIC (Mtb V4207): 0.0039 µg/mL (≈ 0.0102 µM); MIC [2]: 0.0039 to 0.0625 µg/mL; MIC ([2]; Mycobacterium tuberculosis): 0.004 to 0.063 µg/mL (≈ 0.0105 to 0.165 µM) |
| c1cc(-c2ccc(-c3ccoc3)cc2)cc(CN2CCC3(CCCC3)CC2)n1 [Compound 68, 8-((4-(4-(Furan-3-yl)phenyl)pyridin-2-yl)methyl)-8-azaspiro[4.5]decane] | – | stable | – |
| O=C(O)Cc1ccccc1Nc1c(Cl)cccc1Cl [Diclofenac, reference compound] | – | stable | Remaining (T = 60 min) ([1]; with NADPH, after 60 min): 0.4% |
| C[C@]12CC[C@H]3[C@@H](CCC4=CC(=O)CC[C@@]43C)[C@@H]1CC[C@@H]2O [Testosterone, reference compound] | – | stable | – |
